Results on two compounds are retold here after ChEMBL document CHEMBL5053489, “Effects of Eugenol and Dehydrodieugenol B from Nectandra leucantha against Lipopolysaccharide (LPS)-Induced Experimental Acute Lung Inflammation” (J Nat Prod, 2021).

Active and inactive are the calls of the source. The calls are words filed in the database; no cut-off is given here.

The target of series [1] is c-Jun N-terminal kinase (Mus musculus) (UniProt Q91Y86+Q9WTU6+Q61831). In words: Inhibition of LPS-induced JNK phosphorylation in BALB/c mouse at 30 mg/kg administered 6 hrs after LPS stimulation by western blot analysis. It is filed as organism-based. Background: Immunoblotting shows a protein as a band on a membrane.
c-Jun N-terminal kinase (Mus musculus), sequence (Q61831 whole entry, looked up): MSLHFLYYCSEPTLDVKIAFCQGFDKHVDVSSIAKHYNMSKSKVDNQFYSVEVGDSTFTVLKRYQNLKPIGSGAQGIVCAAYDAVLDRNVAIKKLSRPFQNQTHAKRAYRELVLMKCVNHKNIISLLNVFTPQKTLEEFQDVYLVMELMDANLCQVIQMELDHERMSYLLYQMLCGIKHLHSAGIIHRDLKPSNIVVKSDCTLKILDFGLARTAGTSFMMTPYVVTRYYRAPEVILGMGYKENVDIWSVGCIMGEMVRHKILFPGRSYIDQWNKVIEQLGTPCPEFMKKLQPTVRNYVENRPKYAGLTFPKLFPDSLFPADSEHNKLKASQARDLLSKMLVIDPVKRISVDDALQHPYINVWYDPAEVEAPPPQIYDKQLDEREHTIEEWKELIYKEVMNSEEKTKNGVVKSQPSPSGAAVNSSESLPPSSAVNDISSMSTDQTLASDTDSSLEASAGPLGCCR
c-Jun N-terminal kinase (Mus musculus), sequence (Q91Y86 whole entry, looked up): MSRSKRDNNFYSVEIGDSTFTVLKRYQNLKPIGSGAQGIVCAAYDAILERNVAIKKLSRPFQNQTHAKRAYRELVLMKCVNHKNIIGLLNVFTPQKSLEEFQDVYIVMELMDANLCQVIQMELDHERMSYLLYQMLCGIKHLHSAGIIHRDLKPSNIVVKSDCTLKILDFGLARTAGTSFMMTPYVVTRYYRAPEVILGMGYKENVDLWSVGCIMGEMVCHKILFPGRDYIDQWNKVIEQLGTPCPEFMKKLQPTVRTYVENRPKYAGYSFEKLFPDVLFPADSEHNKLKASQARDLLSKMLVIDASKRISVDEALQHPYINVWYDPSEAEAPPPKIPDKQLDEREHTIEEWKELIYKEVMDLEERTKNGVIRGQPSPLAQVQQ
c-Jun N-terminal kinase (Mus musculus), sequence (Q9WTU6 whole entry, looked up): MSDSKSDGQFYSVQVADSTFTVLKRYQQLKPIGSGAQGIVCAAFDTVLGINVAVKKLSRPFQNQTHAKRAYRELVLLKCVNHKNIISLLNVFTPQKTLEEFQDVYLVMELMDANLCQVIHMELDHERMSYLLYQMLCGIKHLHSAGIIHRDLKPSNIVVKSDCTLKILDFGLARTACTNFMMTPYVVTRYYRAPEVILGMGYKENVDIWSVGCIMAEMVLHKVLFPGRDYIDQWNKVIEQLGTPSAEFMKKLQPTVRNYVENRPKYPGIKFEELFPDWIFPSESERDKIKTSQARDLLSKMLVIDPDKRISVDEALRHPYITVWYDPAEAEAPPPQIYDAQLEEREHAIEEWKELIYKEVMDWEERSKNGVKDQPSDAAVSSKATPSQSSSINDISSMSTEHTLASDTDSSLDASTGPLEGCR
Series [2] deals with Mus musculus. Kind of series: Antiinflammatory activity in BALB/c mouse model of LPS-induced acute respiratory distress syndrome assessed as reduction in TNF-alpha level in BALF at 30 mg/kg administered 6 hrs after LPS-stimulation by ELISA. Type of series: functional, organism-based.
Series [3] relates to Mus musculus. Kind of series: Antiinflammatory activity in BALB/c mouse model of LPS-induced acute respiratory distress syndrome assessed as improvement in lung mechanics by measuring tissue elastance at 30 mg/kg administered 6 hrs after LPS-stimulation and measured after 24 hrs by forced oscillation technique. It is filed as functional, organism-based.
Series [4] concerns Mus musculus. Kind of series: Antiinflammatory activity in BALB/c mouse model of LPS-induced acute respiratory distress syndrome assessed as reduction in total inflammatory cells in BALF at 30 mg/kg administered 6 hrs after LPS-stimulation by Diff-quick stain based analysis. It is filed as functional, organism-based.
The test system of series [5] is Mus musculus. Kind of series: Antiinflammatory activity in BALB/c mouse model of LPS-induced acute respiratory distress syndrome assessed as reduction in leukocytes in peripheral blood at 30 mg/kg administered 6 hrs after LPS-stimulation and measured after 24 hrs by Neubauer counting chamber based analysis. It is filed as functional, organism-based.
Series [6] relates to Mus musculus. In words: Antiinflammatory activity in BALB/c mouse model of LPS-induced acute respiratory distress syndrome assessed as reduction in lymphocytes in peripheral blood at 30 mg/kg administered 6 hrs after LPS-stimulation and measured after 24 hrs by Diff-quick stain based analysis. Type of series: functional, organism-based.
The test system of series [7] is Mus musculus. Kind of series: Antiinflammatory activity in BALB/c mouse model of LPS-induced acute respiratory distress syndrome assessed as reduction in pulmonary edema by measuring wet/dry weight ratio at 30 mg/kg administered 6 hrs after LPS-stimulation and measured after […]. Type of series: functional, organism-based.
The subject of series [8] is Mus musculus. Kind of series: Antiinflammatory activity in BALB/c mouse model of LPS-induced acute respiratory distress syndrome assessed as improvement in lung mechanics by measuring respiratory system resistance at 30 mg/kg administered 6 hrs after LPS-stimulation and measured after 24 hrs by forced oscillation technique. Type of series: functional, organism-based.

Series [9] deals with Mus musculus. Kind of series: Toxicity in BALB/c mouse model of LPS-induced acute respiratory distress syndrome assessed as reduction in body mass loss percentage at 30 mg/kg administered 6 hrs after LPS-stimulation. Type of series: organism-based. The following applies: in vivo.
In series [10] the test system is Mus musculus. Kind of series: Antiinflammatory activity in BALB/c mouse model of LPS-induced acute respiratory distress syndrome assessed as reduction in inflammatory cells in alveolar septa at 30 mg/kg administered 6 hrs after LPS-stimulation. It is filed as functional, organism-based.
The subject of series [11] is Mus musculus. In words: Antiinflammatory activity in BALB/c mouse model of LPS-induced acute respiratory distress syndrome assessed as reduction in IL-6 level in BALF at 30 mg/kg administered 6 hrs after LPS-stimulation by ELISA. Type of series: functional, organism-based.
The subject of series [12] is Mus musculus. In words: Antiinflammatory activity in BALB/c mouse model of LPS-induced acute respiratory distress syndrome assessed as reduction in macrophages in BALF at 30 mg/kg administered 6 hrs after LPS-stimulation by Diff-quick stain based analysis. Type of series: functional, organism-based.
The test system of series [13] is Mus musculus. In words: Antiinflammatory activity in BALB/c mouse model of LPS-induced acute respiratory distress syndrome assessed as reduction in density of MMP-9 positive cells in lung parenchyma at 30 mg/kg administered 6 hrs after LPS-stimulation by pointing-count technique based immunohistochemistry analysis. It is filed as functional, organism-based.
Series [14] concerns Mus musculus. Kind of series: Antiinflammatory activity in BALB/c mouse model of LPS-induced acute respiratory distress syndrome assessed as reduction in 9-iso-PGF2alpha expression in alveolar septa at 30 mg/kg administered 6 hrs after LPS-stimulation and measured after 24 hrs by pointing-count technique based immunohistochemistry analysis. Type of series: functional, organism-based.

The subject of series [15] is Mus musculus. In words: Antiinflammatory activity in BALB/c mouse model of LPS-induced acute respiratory distress syndrome assessed as reduction in iNOS expression in alveolar septa at 30 mg/kg administered 6 hrs after LPS-stimulation and measured after 24 hrs by pointing-count technique based immunohistochemistry analysis. It is filed as functional, organism-based.

For series [16], the system named is Mus musculus. In words: Antiinflammatory activity in BALB/c mouse model of LPS-induced acute respiratory distress syndrome assessed as reduction in collagen deposition in lung parenchyma at 30 mg/kg administered 6 hrs after LPS-stimulation and measured after 24 hrs by pointing-count technique based immunohistochemistry analysis. Type of series: functional, organism-based.

The subject of series [17] is Mus musculus. Kind of series: Antiinflammatory activity in BALB/c mouse model of LPS-induced acute respiratory distress syndrome assessed as improvement in lung mechanics by measuring tissue damping at 30 mg/kg administered 6 hrs after LPS-stimulation and measured after 24 hrs by forced oscillation technique. It is filed as functional, organism-based.
Series [18] deals with Mus musculus. In words: Antiinflammatory activity in BALB/c mouse model of LPS-induced acute respiratory distress syndrome assessed as reduction in polymorphonuclear cells in alveolar septa at 30 mg/kg administered 6 hrs after LPS-stimulation by pointing-count technique. It is filed as functional, organism-based.
For series [19], the system named is Mus musculus. Kind of series: Antiinflammatory activity in BALB/c mouse model of LPS-induced acute respiratory distress syndrome assessed as reduction in neutrophils in peripheral blood at 30 mg/kg administered 6 hrs after LPS-stimulation and measured after 24 hrs by Diff-quick stain based analysis. Type of series: functional, organism-based.
Series [20] relates to Mus musculus. Kind of series: Antiinflammatory activity in BALB/c mouse model of LPS-induced acute respiratory distress syndrome assessed as reduction in neutrophils in BALF at 30 mg/kg administered 6 hrs after LPS-stimulation by Diff-quick stain based analysis. It is filed as functional, organism-based.
Series [21] relates to Mus musculus. Kind of series: Antiinflammatory activity in BALB/c mouse model of LPS-induced acute respiratory distress syndrome assessed as improvement in lung mechanics by measuring respiratory system elastance at 30 mg/kg administered 6 hrs after LPS-stimulation and measured after 24 hrs by forced oscillation technique. Type of series: functional, organism-based.
The subject of series [22] is Mus musculus. Kind of series: Antiinflammatory activity in BALB/c mouse model of LPS-induced acute respiratory distress syndrome assessed as reduction in monocytes in peripheral blood at 30 mg/kg administered 6 hrs after LPS-stimulation and measured after 24 hrs by Diff-quick stain based analysis. Type of series: functional, organism-based.
The subject of series [23] is Mus musculus. Kind of series: Antiinflammatory activity in BALB/c mouse model of LPS-induced acute respiratory distress syndrome assessed as reduction in neutrophils in BALF at 20 to 60 mg/kg administered 6 hrs after LPS-stimulation. Particulars: dose 20-60 mg/kg. Type of series: functional, organism-based.
For series [24], the system named is Mus musculus. In words: Antiinflammatory activity in BALB/c mouse model of LPS-induced acute respiratory distress syndrome assessed as reduction in density of TIMP-1 positive cells in lung parenchyma at 30 mg/kg administered 6 hrs after LPS-stimulation by pointing-count technique based immunohistochemistry analysis. Type of series: functional, organism-based.

Series [25] relates to Mus musculus. In words: Antiinflammatory activity in BALB/c mouse model of LPS-induced acute respiratory distress syndrome assessed as reduction in IL-1beta level in BALF at 30 mg/kg administered 6 hrs after LPS-stimulation by ELISA. Type of series: functional, organism-based. In general terms: ELISA stands for enzyme-linked immunosorbent assay.

In the case of `C=CCc1ccc(Oc2cc(CC=C)cc(OC)c2O)c(OC)c1`, in [1], the inhibition entry was “Active”.
`C=CCc1ccc(O)c(OC)c1` [EUGENOL]: the result with Mus musculus [2] and in the series with Mus musculus [8] was inactive. For the same compound, the result with Mus musculus [3], with Mus musculus [4], in the series with Mus musculus [5], with Mus musculus [6], in the series on Mus musculus [7] and in the series with Mus musculus [10] was Active. Further, the result in the series with Mus musculus [11], in the series on Mus musculus [12], in the series on Mus musculus [13], in the series with Mus musculus [14], in the series on Mus musculus [15] and in the series with Mus musculus [16] was Active. Also, the result in the series with Mus musculus [17], in the series with Mus musculus [18], in the series on Mus musculus [19], with Mus musculus [20], in the series with Mus musculus [21] and with Mus musculus [22] was Active. For the same compound, the result in the series with Mus musculus [23], in the series on Mus musculus [24] and in the series with Mus musculus [25] was Active. Besides, the Activity result in the series with Mus musculus [9] is listed as “Non-Toxic”. Moreover, the inhibition entry in [1] was “Active”.
